Data from patent EP4653441A1, “SALT OF ANTIDEPRESSANT COMPOUND, AND PREPARATION METHOD THEREFOR, PHARMACEUTICAL COMPOSITION CONTAINING SAME AND USE THEREOF” (Vigonvita Life Sciences Co., Ltd., priority 2023, dated 2024).
Converted amounts (≈) assume the structure as drawn. Like-named read-outs stand apart in the source and are kept apart here.

Assays:
[1] = Hygroscopicity measurement; format: physicochemical; details: 25°C, 92.5% RH, 24 hours
Procedure: (§1) 3. Hygroscopicity Measurement Method: The test sample was placed for 24 hours at 25°C and 92.5% RH, and then the weight gain by moisture absorption was measured. 4. Stability Test Method: The test sample was placed in a suitable clean container for 14 days under a high temperature (60°C), or a high humidity (40°C, a relative humidity of 75%) condition, and it was sampled on day 0 and day 14 to detect the purity and impurities of the test sample.

[2] = Solubility test in water by HPLC (external standard); format: physicochemical; details: 37°C, shaken 30 minutes
Procedure: 1. X-ray Powder Diffraction (XRPD) Test Method: • Instrument: Bruker D8 advance X-ray polycrystalline diffractometer; Target: Cu-Kα (40 kV, 40 mA); Sample-to-detector distance: 30 cm; Scanning type: two-axis linkage; Scanning step width: 0.02°; Scanning range: 3°~40°; Scanning step: 0.1 s. • In general, diffraction angles (2θ values) in XRPD may produce errors within a range of ± 0.2°, and thus numerical values relating to diffraction angles in the present invention should be understood to also encompass numerical values within a range of about ± 0.2°. Therefore, the present invention not only covers the crystal form that completely matches the characteristic signal peak in the specific XRPD pattern, but also covers the crystal form that has an error of about ± 0.2° with the characteristic signal peak in the specific XRPD pattern. 2. Solubility Test Method: About 20 mg of the test sample was taken and placed in a 1.5 ml sample tube, added with 1 ml of water, then placed in a shaker, shaken at 37°C for 30 minutes, the sample tube was taken and centrifuged in a centrifuge for 2 minutes, and the supernatant was taken for HPLC analysis.

[3] = Stability test of the salts (high temperature / high humidity, 14 days); format: physicochemical
Procedure: as §1

[4] = target: serotonin reuptake (Homo sapiens, UniProt P31645); details: read-out: serotonin reuptake inhibition concentration (IC50); cited from earlier work
serotonin reuptake, sequence (P31645 whole entry): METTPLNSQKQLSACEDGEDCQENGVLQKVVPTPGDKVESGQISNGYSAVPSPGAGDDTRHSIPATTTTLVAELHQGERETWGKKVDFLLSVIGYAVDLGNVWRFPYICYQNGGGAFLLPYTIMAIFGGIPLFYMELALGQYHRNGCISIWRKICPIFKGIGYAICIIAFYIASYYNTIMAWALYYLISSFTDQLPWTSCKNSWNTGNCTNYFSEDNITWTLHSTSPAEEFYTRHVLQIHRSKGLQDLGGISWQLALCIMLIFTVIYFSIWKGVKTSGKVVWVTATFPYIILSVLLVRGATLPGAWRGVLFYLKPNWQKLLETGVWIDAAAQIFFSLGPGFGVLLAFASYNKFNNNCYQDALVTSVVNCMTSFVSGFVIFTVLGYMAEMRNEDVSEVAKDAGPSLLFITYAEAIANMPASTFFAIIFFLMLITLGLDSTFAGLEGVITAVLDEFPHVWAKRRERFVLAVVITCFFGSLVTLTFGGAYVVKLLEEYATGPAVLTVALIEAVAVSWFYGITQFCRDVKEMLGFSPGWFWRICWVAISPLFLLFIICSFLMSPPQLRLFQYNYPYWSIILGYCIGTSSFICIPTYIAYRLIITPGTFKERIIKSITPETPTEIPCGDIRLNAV

[5] = target: T1, 5-HT3 receptor (Homo sapiens, UniProt P46098); details: cited from earlier work
T1 sequence (P46098 24-478): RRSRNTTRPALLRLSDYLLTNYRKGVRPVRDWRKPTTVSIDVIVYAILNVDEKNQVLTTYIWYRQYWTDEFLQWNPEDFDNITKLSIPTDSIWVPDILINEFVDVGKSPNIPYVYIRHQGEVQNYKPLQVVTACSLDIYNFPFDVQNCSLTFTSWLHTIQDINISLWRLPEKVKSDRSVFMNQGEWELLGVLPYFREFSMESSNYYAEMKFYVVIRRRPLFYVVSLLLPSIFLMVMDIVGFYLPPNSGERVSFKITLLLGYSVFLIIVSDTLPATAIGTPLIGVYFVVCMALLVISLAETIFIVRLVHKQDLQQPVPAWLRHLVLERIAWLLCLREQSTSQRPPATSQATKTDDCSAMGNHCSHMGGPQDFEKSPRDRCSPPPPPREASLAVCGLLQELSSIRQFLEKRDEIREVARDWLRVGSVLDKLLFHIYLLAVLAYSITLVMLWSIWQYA

[6] = cited from earlier work
[7] = 60°C/14 days (aluminum foil pouch)

## CN1CC2CN(c3ccc4ccccc4c3)CC2C1 (single isomer, unassigned) [Example 7, 2-methyl-5-(naphthalen-2-yl)octahydropyrrolo[3,4-c]pyrrole]
[1]
  weight gain by moisture absorption: 0.64%
[2]
  Solubility: 15 mg/mL (≈ 59.4 mM)
[3]; 40°C/75% RH/14 days
  Total Impurity (%): 0.17%
[3]; 60°C/14 days
  Total Impurity (%): 0.18%
[3]; [7]
  Total Impurity (%): 0.20%
[3]; Day 0
  Total Impurity (%): 0.14%

## CN1CC2CN(c3ccc4ccccc4c3)CC2C1 (single isomer, unassigned) [Example 1, 2-methyl-5-(naphthalen-2-yl)octahydropyrrolo[3,4-c]pyrrole]
[1]
  weight gain by moisture absorption: 1.6%
[2]
  Solubility: >100 mg/mL
[3]; 40°C/75% RH/14 days
  Total Impurity (%): 0.15%
[3]; 60°C/14 days
  Total Impurity (%): 0.19%
[3]; [7]
  Total Impurity (%): 0.19%
[3]; Day 0
  Total Impurity (%): 0.13%

## CN1CC2CN(c3ccc4ccccc4c3)CC2C1 (single isomer, unassigned) [Example 5, 2-methyl-5-(naphthalen-2-yl)octahydropyrrolo[3,4-c]pyrrole]
[1]
  weight gain by moisture absorption: 1.21%
[2]
  Solubility: 4 mg/mL (≈ 15.9 mM)

## CN1CC2CN(c3ccc4ccccc4c3)CC2C1 (single isomer, unassigned) [Example 2, 2-methyl-5-(naphthalen-2-yl)octahydropyrrolo[3,4-c]pyrrole]
[1]
  weight gain by moisture absorption: 0.74%
[2]
  Solubility: 11 mg/mL (≈ 43.6 mM)
[3]; 40°C/75% RH/14 days
  Total Impurity (%): 0.31%
[3]; 60°C/14 days
  Total Impurity (%): 0.37%
[3]; [7]
  Total Impurity (%): 0.36%
[3]; Day 0
  Total Impurity (%): 0.35%

## CN1CC2CN(c3ccc4ccccc4c3)CC2C1 (single isomer, unassigned) [Example 4, 2-methyl-5-(naphthalen-2-yl)octahydropyrrolo[3,4-c]pyrrole]
[1]
  weight gain by moisture absorption: 6.74%
[2]
  Solubility: 3.5 mg/mL (≈ 13.9 mM)
[3]; 40°C/75% RH/14 days
  Total Impurity (%): 0.44%
[3]; 60°C/14 days
  Total Impurity (%): 0.22%
[3]; [7]
  Total Impurity (%): 0.24%
[3]; Day 0
  Total Impurity (%): 0.21%

## CN1CC2CN(c3ccc4ccccc4c3)CC2C1 (stereo not drawn) [Example 3, 2-methyl-5-(naphthalen-2-yl)octahydropyrrolo[3,4-c]pyrrole]
[1]
  weight gain by moisture absorption: To be liquid

## CN1CC2CN(c3ccc4ccccc4c3)CC2C1 (stereo not drawn) [compound of formula (I), 2-methyl-5-(naphthalen-2-yl)octahydropyrrolo[3,4-c]pyrrole]
[2]; listed as basic compound of formula (I)
  Solubility: Almost Insoluble
[3]; 40°C/75% RH/14 days, listed as Basic compoun d
  Total Impurity (%): 0.41%
[3]; 60°C/14 days (aluminum foil pouch), listed as Basic compoun d
  Total Impurity (%): 0.31%
[3]; 60°C/14 days, listed as Basic compoun d
  Total Impurity (%): 0.23%
[3]; Day 0, listed as Basic compoun d
  Total Impurity (%): 0.15%
[4]
  IC50: < 10 nM
[5]
  affinity for 5-HT3 receptor: high affinity
[6]
  Solubility: low

## CN1CC2CN(c3ccc4ccccc4c3)CC2C1 (single isomer, unassigned) [Example 6, 2-methyl-5-(naphthalen-2-yl)octahydropyrrolo[3,4-c]pyrrole]
[1]
  weight gain by moisture absorption: 1.26%
